Converted amounts (≈) assume the structure as drawn.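 Results reflect a 48-hour exposure of cells in 96-well plates to compound at five concentrations. Abbreviation: GI50, concentration required for 50% inhibition of growth. TGI denotes the concentration required for complete inhibition of growth.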
Tests used:
Experiment in all cases: NCI tumour cell line growth inhibition, 48 h
[1] = tested on: U251 CNS
[2] = tested on: BT-549 breast
[3] = tested on: CAKI-1 renal
[4] = tested on: SK-MEL-28 melanoma
[5] = tested on: IGROV1 ovarian
[6] = tested on: SNB-75 CNS
[7] = tested on: OVCAR-4 ovarian
[8] = tested on: DU-145 prostate
[9] = tested on: RXF 393 renal
[10] = tested on: MDA-MB-435
[11] = tested on: MCF7 breast
[12] = tested on: NCI-H23 lung
[13] = tested on: NCI-H226 lung
[14] = tested on: KM12 colon
[15] = tested on: HCT-15 colon
[16] = tested on: UACC-62 melanoma
[17] = tested on: SK-OV-3 ovarian
[18] = tested on: OVCAR-5 ovarian
[19] = tested on: UO-31 renal
[20] = tested on: NCI-H460 lung
[21] = tested on: OVCAR-3 ovarian
[22] = tested on: A549 NSCLC
[23] = tested on: HOP-62 NSCLC
[24] = tested on: OVCAR-8 ovarian
[25] = tested on: HCC-2998 colon
[26] = tested on: SNB-19 CNS
[27] = tested on: 786-0 renal
[28] = tested on: MDA-MB-231 breast
[29] = tested on: HT29 colon
[30] = tested on: SK-MEL-5 melanoma
[31] = tested on: ACHN renal
[32] = tested on: PC-3 prostate
[33] = tested on: SF-295 CNS
[34] = tested on: NCI/ADR-RES ovarian
[35] = tested on: CCRF-CEM leukemia
[36] = tested on: NCI-H522 lung
[37] = tested on: HCT-116 colon
[38] = tested on: A498 renal
[39] = tested on: SW-620 colon
[40] = tested on: HS 578T breast
[41] = tested on: HL-60(TB) leukemia
[42] = tested on: K-562 leukemia
[43] = tested on: SK-MEL-2 melanoma
[44] = tested on: MOLT-4 leukemia
[45] = tested on: M14 melanoma
[46] = tested on: EKVX NSCLC
[47] = tested on: RPMI-8226 leukemia
[48] = tested on: SF-268 CNS
[49] = tested on: LOX IMVI melanoma
[50] = tested on: SF-539 CNS
[51] = tested on: TK-10 renal
[52] = tested on: MALME-3M melanoma
[53] = tested on: UACC-257 melanoma
[54] = tested on: SN12C renal
[55] = tested on: HOP-92 NSCLC

Work on `C=CC(=O)N1CCN(CCCn2c(=O)c(-c3c(Cl)c(OC)cc(OC)c3Cl)cc3cnc(NC)nc32)CC1` yielded a GI50 [1] of 2570 nM, a TGI [1] of 17 µM and a GI50 [2] of 681 nM. For the same molecule, the TGI [2] was 16 µM, the GI50 [3] was 782 nM and the TGI [3] was 13.6 µM. The GI50 [4] was 7.07 µM, the TGI [4] was 20.9 µM and the GI50 [5] was 888 nM. It also gave a TGI [5] of 13.8 µM, a TGI [6] of 9.36 µM and a GI50 [7] of 1140 nM. For the same molecule, the TGI [7] was 25 µM, the GI50 [8] was 2690 nM and the TGI [8] was 17.7 µM. For the same molecule, the GI50 [9] was 1330 nM, the TGI [9] was 12.9 µM and the GI50 [10] was 2740 nM. For the same molecule, the TGI [10] was 13.8 µM, the GI50 [11] was 8.06 µM and the TGI [11] was 31.8 µM. It also gave a GI50 [12] of 5.57 µM, a TGI [12] of 20.9 µM and a GI50 [13] of 40.8 nM. It also gave a TGI [13] of 20.7 µM, a GI50 [14] of 4.61 µM and a TGI [14] of 19.9 µM. For the same molecule, the GI50 [15] was 2630 nM, the TGI [15] was 15 µM and the GI50 [16] was 2790 nM. The TGI [16] was 15.1 µM, the GI50 [17] was 2180 nM and the TGI [17] was 8.38 µM. It also gave a GI50 [18] of 15.8 µM, a TGI [18] of 33.5 µM and a GI50 [19] of 849 nM. For the same molecule, the TGI [19] was 12.4 µM, the GI50 [20] was 3.22 µM and the TGI [20] was 19 µM. The GI50 [21] was 5.6 µM, the TGI [21] was 20.4 µM and the GI50 [22] was 4.41 µM. It also gave a TGI [22] of 19.7 µM, a GI50 [23] of 5.56 µM and a TGI [23] of 19.3 µM. For the same molecule, the GI50 [24] was 3.95 µM, the TGI [24] was 22.9 µM and the GI50 [25] was 10.9 µM. The TGI [25] was 24.6 µM, the GI50 [26] was 7.32 µM and the TGI [26] was 20.7 µM. It also gave a GI50 [27] of 1320 nM, a TGI [27] of 17.2 µM and a GI50 [28] of 3.52 µM. It also gave a TGI [28] of 14.6 µM, a GI50 [29] of 4.4 µM and a TGI [29] of 20 µM. For the same molecule, the GI50 [30] was 1650 nM, the TGI [30] was 12.3 µM and the GI50 [31] was 710 nM. The TGI [31] was 11.6 µM, the GI50 [32] was 2500 nM and the TGI [32] was 11.4 µM. For the same molecule, the GI50 [33] was 3.54 µM, the TGI [33] was 16.5 µM and the GI50 [34] was 7.12 µM. The TGI [34] was 67.6 µM, the GI50 [35] was 2040 nM and the TGI [35] was 11.9 µM. For the same molecule, the GI50 [36] was 2510 nM, the TGI [36] was 14.6 µM and the GI50 [37] was 2630 nM. It also gave a TGI [37] of 17.1 µM, a TGI [38] of 1810 nM and a GI50 [39] of 4.07 µM. The TGI [39] was 34.2 µM, the GI50 [40] was 2250 nM and the TGI [40] was 51.8 µM. The GI50 [41] was 2800 nM, the TGI [41] was 29 µM and the GI50 [42] was 5.96 µM. For the same molecule, the TGI [42] was over 100 µM, the GI50 [43] was 1130 nM and the TGI [43] was 6.31 µM. It also gave a GI50 [44] of 1830 nM, a TGI [44] of over 100 µM and a GI50 [45] of 1670 nM. For the same molecule, the TGI [45] was 16.8 µM, the GI50 [46] was 4.38 µM and the TGI [46] was 19.6 µM. The GI50 [47] was 1030 nM, the TGI [47] was 4.09 µM and the GI50 [48] was 3.02 µM. The TGI [48] was 21.3 µM, the GI50 [49] was 1670 nM and the TGI [49] was 15 µM. For the same molecule, the GI50 [50] was 1580 nM, the TGI [50] was 9.5 µM and the GI50 [51] was 1750 nM. For the same molecule, the TGI [51] was 16.6 µM, the GI50 [52] was 1700 nM and the TGI [52] was 12.5 µM. It also gave a GI50 [53] of 3.8 µM, a TGI [53] of 18 µM and a GI50 [54] of 3.13 µM. It also gave a TGI [54] of 16.2 µM.

`COc1cc(C=C2C(=O)NC(=O)NC2=O)ccc1OCc1ccccc1` gave a GI50 [2] of 33.9 µg/mL, a GI50 [12] of 69.9 µg/mL and a GI50 [19] of 61.2 µg/mL. It also gave a GI50 [35] of 79.7 µg/mL, a GI50 [55] of 71.8 µg/mL (≈ 204 µM) and a GI50 [47] of 22.3 µg/mL. It also gave a GI50 [49] of 87.8 µg/mL.
